According to patent US6444614B2, “Aspartic acid derivative-containing compositions and use thereof in stimulating and/or regulating plant and plant precursor growth” (LidoChem Inc., priority 2000, dated 2002):
Where a name gives a salt, the structure may show the parent alone.

Tests used:
Mexican Heather plants = assay: Soil application of IDS and/or EDDS free acids to Mexican heather plants (Example IV); assay type: in vivo, Cuphea hyssopifolia Kunth.; settings: 200 ppm free acid; for root mass versus vegetative growth: within 10 mm of each plant
Procedure: Four sets of six Mexican Heather plants each were placed on trays without transplanting. 0.2 gm/liter stock solutions of IDS and EDDS free acids prepared according to Example III, supra, were used, in three different treatments (EDDS alone, IDS alone and a 50:50 mixture of EDDS and IDS) to treat the three sets of plants as set forth in Table IV, attached, by placing the solutions into the soil within 10 mm. of each of the plants. A fourth set was treated with distilled water (the ‘control’ set).

[1] = system: germinated field corn seeds; assay: Germinated field corn seeds on water plates treated with tetra-sodium salt of EDDS (Example I); assay type: in vivo, Zea mays L.; settings: after 9 days; for NUMBER OF SEED GERMINATED AND SURVIVED: Field corn, 10 seeds per plate
Procedure: (§1) Styrofoam plates were each charged with 80 ml. water. The plates are titled: (a) the ‘control’ plates; (b) the ‘Treatment 1’ plates; and (c) the ‘Treatment 2’ plates.
(§2) Into the ‘control’ plates, the ‘Treatment 1’ plates and the ‘Treatment 2’ plates were placed, at the loading of 10 seeds per plate, germinated sweet corn seeds, germinated field corn seeds, germinated snap bean, seeds, germinated cantaloupe melon seeds and germinated soy bean seeds.
(§3) The ‘Treatment 1’ plates were then each treated with 0.1 ml. of a 38% aqueous solution of the tetra-sodium salt of EDDS (having the structure as set forth in FIG. 15), or 0.000475 gm./plate, or 475 ppm per plate.
(§4) The ‘Treatment 2’ plates were then each treated with 1 ml. of a 38% aqueous solution of the tetra-odium salt of EDDS, or 0.00475 gm./plate or 4750 ppm per plate.
(§5) No EDDS salt was added to the ‘control’ plate.
(§6) Over a period of 9 days, each plate had distilled water added thereto, as needed, in order to make up for the evaporation of the water during the 9 day period.
(§7) 9 days after the trial commenced, the number of germinated seeds which survived were as set forth in attached Table I.

[2] = system: germinated sweet corn seeds; assay: Germinated sweet corn seeds on water plates treated with tetra-sodium salt of EDDS (Example I); assay type: in vivo, Zea mays L. var. saccharata; settings: for NUMBER OF SEED GERMINATED AND SURVIVED: Sweet corn, 10 seeds per plate; for germinating-seed stimulating concentration: germinating sweet corn seed, treating solution
Procedure: as §1, §2, §3, §4, §5, §6, §7

[3] = system: germinated cantaloupe melon seeds; assay: Germinated cantaloupe melon seeds on water plates treated with tetra-sodium salt of EDDS (Example I); assay type: in vivo; settings: 10 seeds per plate, after 9 days
Procedure: as §1, §2, §3, §4, §5, §6, §7

[4] = system: germinated snap bean seeds; assay: Germinated snap bean seeds on water plates treated with tetra-sodium salt of EDDS (Example I); assay type: in vivo, Phaseolus vulgaris L.; settings: Snap beans, 10 seeds per plate, after 9 days
Procedure: as §1, §2, §3, §4, §5, §6, §7

Lettuce seeds = settings: cultured in a fertilizer soln. contg. 100 ppm; cited from earlier work
sweet corn seeds = assay: Sweet corn seeds on water plates treated with IDS salt alone or with EDDS salt (Example II); assay type: in vivo, Zea mays L. var. saccharata; settings: 9 day period; IDS salt 4630 or 463 ppm per plate, or IDS + EDDS salt mixture (Treatment 3)
Procedure: Styrofoam plates were each charged with 80 ml. water. The plates are titled: (a) the ‘control’ plates; (b) the ‘Treatment 1’ plates; (c) the ‘Treatment 2’ plates and (d) the ‘Treatment 3’ plates.
Into the ‘control’ plates, the ‘Treatment 1’ plates, the ‘Treatment 2’ plates and the ‘Treatment 3’ plates, were placed, at a loading of 6 seeds per plate, sweet corn seeds, field corn seeds, cantaloupe melon seeds and soy bean seeds.
The ‘Treatment 1’ plates were then each treated with 1 ml. of a 37% solution of the tri-potassium salt of IDS (having the structure as set forth in FIG. 17), or 0.00463 gm./plate or 4630 ppm per plate.
The ‘Treatment 2’ plates were then each treated with 0.1 ml. of a 37% solution of the tri-potassium salt of IDS, or 0.000463 gm./plate, or 463 ppm per plate.
The ‘Treatment 3’ plates were then each treated with a mixture 0.5 ml. of a 37% solution of the tri-potassium salt of IDS and 0.5 ml. of a 38% solution of the tetra-sodium salt of EDDS, or 0.000231 gm/plate of the IDS salt and 0.000238 gm./plate of the EDDS salt.
No EDDS or IDS salts were added to the control plate.
Over a period of 9 days, each plate had distilled water added thereto, as needed, in order to make up for the evaporation of water during the 9 day period.
9 days after the trial commenced, the number of germinated seeds which survived were as set forth in attached Table II.

[5] = Treatment 1 (EDDS at 0.1 ml Per liter; 475 ppm per plate)
[6] = Treatment 2 (EDDS at 1 ml Per liter; 4750 ppm per plate)

O=C(O)CC(NCCNC(CC(=O)O)C(=O)O)C(=O)O (mixture of isomers) [EDDS free acid, N,N′-1,2-ethanediylbis-aspartic acid]
leaf position and internode lengths at the end of the experiment (Mexican Heather plants): the plant leaves are lower on the main stem and internode lengths are shortened
root mass versus vegetative growth (Mexican Heather plants): promoted a greater root mass at the expense of vegetative growth

O=C(O)CC(NCCNC(CC(=O)O)C(=O)O)C(=O)O (mixture of isomers) [tetra-sodium salt of EDDS, N,N′-1,2-ethanediylbis-aspartic acid]
NUMBER OF SEED GERMINATED AND SURVIVED [1, 5]: 9
NUMBER OF SEED GERMINATED AND SURVIVED [1, 6]: 4
germination and growth of the field corn ([1]; Treatment 2 plates (4750 ppm per plate)): inhibition of the germination and growth
NUMBER OF SEED GERMINATED AND SURVIVED ([2]; Treatment 1 (EDDS at 0.1 ml Per liter; 475 ppm per plate), after 9 days): 10
NUMBER OF SEED GERMINATED AND SURVIVED ([2]; Treatment 2 (EDDS at 1 ml Per liter; 4750 ppm per plate), after 9 days): 7
germination and growth of the germinated sweet corn seeds, as compared with the control ([2]; Treatment 1 plates (475 ppm per plate), after 9 days): uniform germination and growth
germination and growth of the sweet corn ([2]; Treatment 2 plates (4750 ppm per plate), after 9 days): inhibition of the germination and growth
action on germinating seed ([2]; at a concentration of about 10×10^−4 gram moles per liter): acts as a germinating seed growth regulator
germinating-seed stimulating concentration [2]: about 1×10^−4 gram moles per liter
NUMBER OF SEED GERMINATED AND SURVIVED [3, 5]: 1
NUMBER OF SEED GERMINATED AND SURVIVED [3, 6]: 0
NUMBER OF SEED GERMINATED AND SURVIVED [4, 5]: 5
NUMBER OF SEED GERMINATED AND SURVIVED [4, 6]: 1

O=C(O)CC(N[C@@H](CC(=O)O)C(=O)O)C(=O)O (stereo partly shown) [IDS free acid, N-(1,2-dicarboxyethyl)aspartic acid]
root mass versus vegetative growth (Mexican Heather plants): promoted a greater root mass at the expense of vegetative growth, although to a significantly lesser extent than done using EDDS

O=C(O)C[C@H](NCCN[C@@H](CC(=O)O)C(=O)O)C(=O)O [S,S-ethylenediamine-N,N-disuccinic acid]
plant growth of lettuce (Lettuce seeds): good plant growth

O=C(O)CC(N[C@@H](CC(=O)O)C(=O)O)C(=O)O (stereo partly shown) [tri-potassium salt of IDS, N-(1,2-dicarboxyethyl)aspartic acid]
germination and uniformity of seedling growth, sweet corn seeds (sweet corn seeds): germinated and the resulting seedlings started to grow more uniformly
germinating-seed stimulating concentration [2]: about 1×10^−4 gram moles per liter
